Legend:
Type in all cases: in vivo
Conditions in all cases: applied at 1000 g/h, evaluated after 13 days
[1] = system: Alopecurus myosuroides (ALOMY); assay: Herbicidal glasshouse test, pre-emergence, ALOMY
[2] = system: Setaria faberi (SETFA); assay: Herbicidal glasshouse test, pre-emergence, SETFA
[3] = system: Echinochloa crus-galli (ECHCG); assay: Herbicidal glasshouse test, pre-emergence, ECHCG
In short: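 In this pre-emergence glasshouse test, ECHCG seeds sown in pots of standard soil were sprayed one day after sowing with the test material in acetone/water (50:50) containing 0.5% Tween 20. Plants were kept at 24/16° C., 14 hours light, 65% humidity, and watered twice daily. Percentage damage was rated after 13 days on a 1–5 scale.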

[4] = system: Solanum nigrum (SOLNI); assay: Herbicidal glasshouse test, pre-emergence, SOLNI
In short: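 This pre-emergence glasshouse herbicide test used Solanum nigrum sown in standard soil. One day after sowing, pots were sprayed with the compound in acetone/water (50:50) with 0.5% Tween 20. They were then grown at 24/16° C., with 14 hours light and 65% humidity, and watered twice daily. Percentage damage was scored after 13 days on a five point scale, where 5=80-100% and 1=0-19%.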

[5] = system: Amaranthus retoflexus (AMARE); assay: Herbicidal glasshouse test, pre-emergence, AMARE
In short: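 This pre-emergence glasshouse herbicide test used Amaranthus retoflexus sown in standard soil. After one day of cultivation, an aqueous spray made from the technical ingredient in 50:50 acetone/water with 0.5% Tween 20 was applied. Pots stayed at 24/16° C., 14 hours light, 65% humidity, with twice-daily watering. Damage was rated on a five point scale (1=0-19% up to 5=80-100%).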

[6] = system: Ipomoea hederacea (IPOHE); assay: Herbicidal glasshouse test, pre-emergence, IPOHE
[7] = system: Alopecurus myosuroides (ALOMY); assay: Herbicidal glasshouse test, post-emergence, ALOMY
[8] = system: Setaria faberi (SETFA); assay: Herbicidal glasshouse test, post-emergence, SETFA
In short: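 This post-emergence glasshouse herbicide test used potted Setaria faberi. Plants were cultivated for 8 days under controlled conditions (24/16° C. day/night, 14 hours light, 65% humidity) and then treated with an aqueous spray made from an acetone/water (50:50) solution containing 0.5% Tween 20. After 13 days of further growth with twice-daily watering, damage was rated on a five point scale (5=80-100%; 1=0-19%).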

[9] = system: Echinochloa crus-galli (ECHCG); assay: Herbicidal glasshouse test, post-emergence, ECHCG
In short: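 In this post-emergence glasshouse test, barnyard grass (ECHCG) was cultivated for 8 days under controlled conditions (24/16° C. day/night, 14 hours light, 65% humidity). It was then sprayed with an aqueous solution of the technical compound in acetone / water (50:50) with 0.5% Tween 20. Plants were kept under the same conditions and watered twice daily. After 13 days, percentage damage was rated on a five point scale (5=80-100%; 1=0-19%).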

[10] = system: Solanum nigrum (SOLNI); assay: Herbicidal glasshouse test, post-emergence, SOLNI
[11] = system: Amaranthus retoflexus (AMARE); assay: Herbicidal glasshouse test, post-emergence, AMARE
In short: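 This post-emergence glasshouse test used AMARE plants raised in standard soil for 8 days under controlled conditions (24/16° C. day/night, 14 hours light, 65% humidity). Foliage was sprayed with formulated compound in acetone/water (50:50) containing 0.5% Tween 20. Plants were then watered twice daily, and after 13 days percentage damage was rated on a five point scale.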

[12] = system: Ipomoea hederacea (IPOHE); assay: Herbicidal glasshouse test, post-emergence, IPOHE

| Compound | PRE Application ALOMY, percentage damage (five point scale) [1] | PRE Application SETFA, percentage damage (five point scale) [2] | PRE Application ECHCG, percentage damage (five point scale) [3] | PRE Application SOLNI, percentage damage (five point scale) [4] | PRE Application AMARE, percentage damage (five point scale) [5] | PRE Application IPOHE, percentage damage (five point scale) [6] | POST Application ALOMY, percentage damage (five point scale) [7] | POST Application SETFA, percentage damage (five point scale) [8] | POST Application ECHCG, percentage damage (five point scale) [9] | POST Application SOLNI, percentage damage (five point scale) [10] | POST Application AMARE, percentage damage (five point scale) [11] | POST Application IPOHE, percentage damage (five point scale) [12] |
| --- | --- | --- | --- | --- | --- | --- | --- | --- | --- | --- | --- | --- |
| Cc1cc(C)cc(Cn2c(=O)c(C(=O)Nc3nnnn3C)nn(C)c2=O)c1 [Compound 1.074] | 5 (5=80-100%) | 1 (1=0-19%) | 4 (4=60-79%) | 5 (5=80-100%) | 5 (5=80-100%) | 3 (3=40-59%) | 4 (4=60-79%) | 1 (1=0-19%) | 3 (3=40-59%) | 5 (5=80-100%) | 5 (5=80-100%) | 2 (2=20-39%) |
| COc1cc(Cn2c(=O)c(C(=O)Nc3nnnn3C)nn(C)c2=O)cc(Cl)n1 [Compound 1.070] | 5 (5=80-100%) | 1 (1=0-19%) | 5 (5=80-100%) | 5 (5=80-100%) | 5 (5=80-100%) | 5 (5=80-100%) | 5 (5=80-100%) | 2 (2=20-39%) | 5 (5=80-100%) | 5 (5=80-100%) | 5 (5=80-100%) | 5 (5=80-100%) |
| CC(Cl)c1ccc(-n2c(=O)c(C(=O)Nc3nnnn3C)nn(C)c2=O)cc1 (stereo not drawn) [Compound 1.010] | 5 (5=80-100%) | 5 (5=80-100%) | 5 (5=80-100%) | 5 (5=80-100%) | 4 (4=60-79%) | 5 (5=80-100%) | 5 (5=80-100%) | 5 (5=80-100%) | 5 (5=80-100%) | 5 (5=80-100%) | 5 (5=80-100%) | 5 (5=80-100%) |
| CC(C)CCn1nc(C(=O)Nc2nnnn2C)c(=O)n(-c2cccc(F)c2)c1=O [Compound 1.013] | 1 (1=0-19%) | 1 (1=0-19%) | 1 (1=0-19%) | 3 (3=40-59%) | 2 (2=20-39%) | 2 (2=20-39%) | 5 (5=80-100%) | 3 (3=40-59%) | 1 (1=0-19%) | 5 (5=80-100%) | 2 (2=20-39%) | 4 (4=60-79%) |
| COc1ccc([N+](=O)[O-])cc1Cn1c(=O)c(C(=O)Nc2nnnn2C)nn(C)c1=O [Compound 1.081] | 5 (5=80-100%) | 2 (2=20-39%) | 5 (5=80-100%) | 5 (5=80-100%) | 5 (5=80-100%) | 5 (5=80-100%) | 5 (5=80-100%) | 4 (4=60-79%) | 4 (4=60-79%) | 5 (5=80-100%) | 5 (5=80-100%) | 5 (5=80-100%) |
| CSc1ccc(-n2c(=O)c(C(=O)Nc3nnnn3C)nn(C)c2=O)cc1 [Compound 1.009] | 2 (2=20-39%) | 1 (1=0-19%) | 2 (2=20-39%) | 5 (5=80-100%) | 5 (5=80-100%) | 4 (4=60-79%) | 5 (5=80-100%) | 5 (5=80-100%) | 5 (5=80-100%) | 5 (5=80-100%) | 5 (5=80-100%) | 5 (5=80-100%) |
| Cc1cc(Cn2c(=O)c(C(=O)Nc3nnnn3C)nn(C)c2=O)ccc1F [Compound 1.075] | 5 (5=80-100%) | 1 (1=0-19%) | 5 (5=80-100%) | 5 (5=80-100%) | 5 (5=80-100%) | 5 (5=80-100%) | 2 (2=20-39%) | 1 (1=0-19%) | 3 (3=40-59%) | 5 (5=80-100%) | 5 (5=80-100%) | 5 (5=80-100%) |
| Cn1nnnc1NC(=O)c1nn(C)c(=O)n(-c2cccc(F)c2)c1=O [Compound 1.017] | 5 (5=80-100%) | 5 (5=80-100%) | 5 (5=80-100%) | 5 (5=80-100%) | 5 (5=80-100%) | 5 (5=80-100%) | 5 (5=80-100%) | 5 (5=80-100%) | 5 (5=80-100%) | 5 (5=80-100%) | 5 (5=80-100%) | 5 (5=80-100%) |
| Cn1nnnc1NC(=O)c1nn(C)c(=O)n(CCC(F)(F)F)c1=O [Compound 1.094] | 5 (5=80-100%) | 5 (5=80-100%) | 5 (5=80-100%) | 5 (5=80-100%) | 5 (5=80-100%) | 5 (5=80-100%) | 5 (5=80-100%) | 5 (5=80-100%) | 5 (5=80-100%) | 5 (5=80-100%) | 5 (5=80-100%) | 5 (5=80-100%) |
| Cn1nnnc1NC(=O)c1nn(C)c(=O)n(Cc2ccccc2)c1=O [Compound 1.022] | 5 (5=80-100%) | 3 (3=40-59%) | 5 (5=80-100%) | 5 (5=80-100%) | 5 (5=80-100%) | 4 (4=60-79%) | 4 (4=60-79%) | 4 (4=60-79%) | 5 (5=80-100%) | 5 (5=80-100%) | 5 (5=80-100%) | 5 (5=80-100%) |

Reference: US20160009693A1, “HERBICIDAL COMPOUNDS” (SYNGENTA LIMITED, priority 2013, published 2016)
